Assay results as given in patent US20260325533A1, “CDK INHIBITOR COMPOUNDS” (ALEKSIA THERAPEUTICS, INC., priority 2023, published 2026).
Like-named read-outs stand apart in the source and are kept apart here.

Columns and labels:
Assay type in all cases: biochemical
CDK2/CCNE1 = CDK2/CCNE1 (Homo sapiens, UniProt P24941); assay: CDK2 homogeneous time-resolved fluorescence (HTRF) kinase assay; details: CDK2/CCNE
Summary of the method: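 3 nM CDK2/CCNE1 was preincubated with compound for 20 min at 23 °C in HEPES buffer (pH not stated), then reacted 60 min with 1 mM ATP and 50 nM ULight-4E-BP1 (Thr37/46) peptide. After EDTA stop, Eu-anti-phospho-4E-BP1 antibody (2 nM) was added for 60 min and TR-FRET read at 665 nm.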

CDK4/CCND3 = CDK4/CCND3 (Homo sapiens, UniProt P11802); assay: CDK4 homogeneous time-resolved fluorescence (HTRF) kinase assay; details: CDK4/CCND
Summary of the method: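 CDK4/CCND3 at 1.5 nM was preincubated with compound for 20 min at 23 °C, then reacted for 60 min with 1 mM ATP and 50 nM ULight-4E-BP1 (Thr37/46) peptide. The reaction was stopped with EDTA, and phosphorylation was read by HTRF with a Eu-anti-phospho antibody. IC50 values came from 11-point half-log titrations, typically from 10 μM.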

CDK1/CCNB1 = CDK1/CCNB1 (Homo sapiens, UniProt P06493); assay: CDK1 homogeneous time-resolved fluorescence (HTRF) kinase assay; details: CDK1/CCNB
Summary of the method: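 HTRF assay with 0.5 nM CDK1/CCNB1, 1 mM ATP, 50 nM ULight-eIF4E-BP1 (Thr37/46) peptide; compound preincubated 20 min, reaction 60 min at 23 °C, EDTA stop, Eu-anti-phospho antibody detection. 11-point half-log titration from 10 μM, 1% DMSO; IC50 from 665 nm or 665/615 signal.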

CDK6/CCND1 = CDK6/CCND1 (Homo sapiens, UniProt Q00534); assay: CDK6 homogeneous time-resolved fluorescence (HTRF) kinase assay; details: CDK6/CCND
Summary of the method: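 Enzyme pre-incubated 20 min at 23 °C with compound, then reacted 60 min at 23 °C with 1 mM ATP and 50 nM ULight-4E-BP1 (Thr37/46) peptide; 1 nM enzyme, 1% DMSO. EDTA-stopped, Eu-anti-phospho antibody TR-FRET read (665 nm or 665/615 ratio); 11-point half-log titration from 10 μM gave IC50.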

[1] = 25-250 nM marked x, read-out: CDK2/CCNE IC50 25-250 nM
[2] = >250 nM marked x, read-out: CDK4/CCND IC50 >250 nM
[3] = >250 nM marked x, read-out: CDK1/CCNB IC50 >250 nM
[4] = >250 nM marked x, read-out: CDK6/CCND IC50 >250 nM
[5] = 25-250 nM marked x, read-out: CDK4/CCND IC50 25-250 nM
[6] = 25-250 nM marked x, read-out: CDK6/CCND IC50 25-250 nM
[7] = >250 nM marked x, read-out: CDK2/CCNE IC50 >250 nM
[8] = <25 nM, read-out: CDK2/CCNE IC50 <25 nM

CDK4/CCND3, sequence (P11802 whole entry): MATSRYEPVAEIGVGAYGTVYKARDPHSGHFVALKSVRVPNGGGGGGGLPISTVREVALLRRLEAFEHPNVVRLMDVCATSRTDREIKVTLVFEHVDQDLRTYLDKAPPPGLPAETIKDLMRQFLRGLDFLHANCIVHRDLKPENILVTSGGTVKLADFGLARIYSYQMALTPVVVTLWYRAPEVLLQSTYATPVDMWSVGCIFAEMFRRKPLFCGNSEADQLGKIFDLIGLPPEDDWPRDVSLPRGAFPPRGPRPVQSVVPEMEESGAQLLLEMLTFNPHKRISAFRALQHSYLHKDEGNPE
CDK4/CCND3, sequence (P30281 whole entry partner): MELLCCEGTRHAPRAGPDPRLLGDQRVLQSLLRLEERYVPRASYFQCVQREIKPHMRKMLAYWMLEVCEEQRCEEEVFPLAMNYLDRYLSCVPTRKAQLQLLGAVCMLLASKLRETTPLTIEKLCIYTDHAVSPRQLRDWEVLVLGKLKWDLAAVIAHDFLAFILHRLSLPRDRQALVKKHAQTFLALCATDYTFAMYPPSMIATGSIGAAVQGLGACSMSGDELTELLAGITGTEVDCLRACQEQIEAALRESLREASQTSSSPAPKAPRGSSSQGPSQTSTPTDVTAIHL
CDK6/CCND1, sequence (Q00534 whole entry): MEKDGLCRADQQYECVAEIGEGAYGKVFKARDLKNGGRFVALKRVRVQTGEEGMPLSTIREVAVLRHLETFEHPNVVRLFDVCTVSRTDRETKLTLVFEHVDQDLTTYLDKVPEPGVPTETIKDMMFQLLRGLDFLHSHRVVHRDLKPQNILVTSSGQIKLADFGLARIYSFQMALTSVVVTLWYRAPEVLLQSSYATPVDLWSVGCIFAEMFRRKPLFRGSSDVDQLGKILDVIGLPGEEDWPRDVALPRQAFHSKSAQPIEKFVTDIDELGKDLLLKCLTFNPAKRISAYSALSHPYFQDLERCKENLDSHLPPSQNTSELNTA
CDK6/CCND1, sequence (P24385 whole entry partner): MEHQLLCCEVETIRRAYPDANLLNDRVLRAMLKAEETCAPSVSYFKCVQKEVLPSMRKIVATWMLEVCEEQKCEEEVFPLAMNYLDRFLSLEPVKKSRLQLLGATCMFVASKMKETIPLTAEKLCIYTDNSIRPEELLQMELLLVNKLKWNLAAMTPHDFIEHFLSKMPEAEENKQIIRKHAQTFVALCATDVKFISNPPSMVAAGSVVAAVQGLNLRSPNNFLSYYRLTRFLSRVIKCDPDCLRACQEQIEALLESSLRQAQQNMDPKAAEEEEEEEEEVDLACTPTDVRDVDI
CDK1/CCNB1, sequence (P06493 whole entry): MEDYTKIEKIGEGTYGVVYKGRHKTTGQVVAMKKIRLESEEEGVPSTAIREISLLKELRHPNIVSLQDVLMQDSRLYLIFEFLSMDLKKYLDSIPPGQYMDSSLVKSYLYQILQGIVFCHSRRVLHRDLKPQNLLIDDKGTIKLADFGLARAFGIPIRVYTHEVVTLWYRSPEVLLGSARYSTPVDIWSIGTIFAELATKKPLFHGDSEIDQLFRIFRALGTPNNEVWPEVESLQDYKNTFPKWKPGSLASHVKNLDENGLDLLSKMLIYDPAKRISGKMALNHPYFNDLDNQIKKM
CDK1/CCNB1, sequence (P14635 whole entry partner): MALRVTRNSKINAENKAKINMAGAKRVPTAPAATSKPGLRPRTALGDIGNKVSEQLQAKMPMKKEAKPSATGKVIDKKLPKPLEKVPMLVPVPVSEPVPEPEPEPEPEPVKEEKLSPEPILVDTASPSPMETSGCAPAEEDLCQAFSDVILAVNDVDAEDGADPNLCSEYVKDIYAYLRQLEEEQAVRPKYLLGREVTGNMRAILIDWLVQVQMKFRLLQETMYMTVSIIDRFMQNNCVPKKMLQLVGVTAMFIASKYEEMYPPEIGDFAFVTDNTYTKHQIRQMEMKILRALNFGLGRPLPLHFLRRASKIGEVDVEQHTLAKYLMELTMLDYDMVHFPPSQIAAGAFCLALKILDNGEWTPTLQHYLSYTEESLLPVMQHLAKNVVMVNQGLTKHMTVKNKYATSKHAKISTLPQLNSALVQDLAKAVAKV

Structure (SMILES) | IC50 (CDK2/CCNE1; [1]) | IC50 (CDK4/CCND3; [2]) | IC50 (CDK1/CCNB1; [3]) | IC50 (CDK6/CCND1; [4]) | IC50 (CDK4/CCND3; [5]) | IC50 (CDK6/CCND1; [6]) | IC50 (CDK2/CCNE1; [7]) | IC50 (CDK2/CCNE1; [8]) | IC50 (CDK4/CCND3; <25 nM, read-out: CDK4/CCND IC50 <25 nM) | IC50 (CDK1/CCNB1; 25-250 nM marked x, read-out: CDK1/CCNB IC50 25-250 nM)
Cc1c(-c2nccc3cnc(Nc4ccc(S(C)(=O)=O)cc4)cc23)ccc2c1cnn2CC1CN(C)C1 [Ex 243, 5-(4-methyl-1-((1-methylazetidin-3-yl)methyl)-1H-indazol-5-yl)-N-(4-(methylsulfonyl)phenyl)-2,6-naphthyridin-3-amine] | 25 to 250 nM |  | > 250 nM |  | 25 to 250 nM | 25 to 250 nM |  |  |  | 
C=CS(=O)(=O)c1ccc(Nc2cc3c(-c4ccc5[nH]ncc5c4C)nccc3cn2)cc1 [Ex 245, 5-(4-methyl-1H-indazol-5-yl)-N-(4-(vinylsulfonyl)phenyl)-2,6-naphthyridin-3-amine] | 25 to 250 nM | > 250 nM | > 250 nM | > 250 nM |  |  |  |  |  | 
CS(=O)(=O)c1ccc(Nc2cc3c(C#C[C@H]4CC[C@H](N)CC4)nccc3cn2)cc1 [Ex 247, 5-(((1r,4r)-4-aminocyclohexyl)ethynyl)-N-(4-(methylsulfonyl)phenyl)-2,6-naphthyridin-3-amine] | 25 to 250 nM |  | > 250 nM |  | 25 to 250 nM | 25 to 250 nM |  |  |  | 
CS(=O)(=O)c1ccc(Nc2cc3c(N4CC5(CN(c6ccc(C#N)cc6)C5)C4)nccc3cn2)cc1 [Ex 248, 4-(6-(7-((4-(methylsulfonyl)phenyl)amino)-2,6-naphthyridin-1-yl)-2,6-diazaspiro[3.3]heptan-2-yl)benzonitrile] |  | > 250 nM | > 250 nM | > 250 nM |  |  | > 250 nM |  |  | 
Cc1c(-c2nccc3cnc(Nc4ccc(S(C)(=O)=O)cc4)cc23)ccc2nn(CC(N)=O)cc12 [Ex 250, 2-(4-methyl-5-(7-((4-(methylsulfonyl)phenyl)amino)-2,6-naphthyridin-1-yl)-2H-indazol-2-yl)acetamide] |  |  | > 250 nM |  | 25 to 250 nM | 25 to 250 nM |  | < 25 nM |  | 
CCC1(CC)C(=O)Nc2cc(C#Cc3nccc4cnc(Nc5ccc(S(=O)(=O)CC(F)(F)F)cc5F)cc34)ccc21 [Ex 283, 3,3-diethyl-6-((7-((2-fluoro-4-((2,2,2-trifluoroethyl)sulfonyl)phenyl)amino)-2,6-naphthyridin-1-yl)ethynyl)indolin-2-one] |  | > 250 nM | > 250 nM | > 250 nM |  |  | > 250 nM |  |  | 
CCC1(CC)C(=O)Nc2cc(C#Cc3nccc4cnc(Nc5ccc(S(=O)(=O)CC(F)(F)F)cc5C)cc34)ccc21 [Ex 286, 3,3-diethyl-6-((7-((2-methyl-4-((2,2,2-trifluoroethyl)sulfonyl)phenyl)amino)-2,6-naphthyridin-1-yl)ethynyl)indolin-2-one] | 25 to 250 nM | > 250 nM | > 250 nM | > 250 nM |  |  |  |  |  | 
CC1(C)C(=O)Nc2cc(C#Cc3nccc4cnc(Nc5ccc(S(C)(=O)=O)cc5C(F)F)cc34)ccc21 [Ex 312, 6-((7-((2-(difluoromethyl)-4-(methylsulfonyl)phenyl)amino)-2,6-naphthyridin-1-yl)ethynyl)-3,3-dimethylindolin-2-one] |  | > 250 nM | > 250 nM | > 250 nM |  |  |  | < 25 nM |  | 
Cc1cc(S(C)(=O)=O)ccc1Nc1cc2c(C#Cc3cc4c(cc3F)C(C)(C)C(=O)N4)nccc2cn1 [Ex 342, 5-fluoro-3,3-dimethyl-6-((7-((2-methyl-4-(methylsulfonyl)phenyl)amino)-2,6-naphthyridin-1-yl)ethynyl)indolin-2-one] |  | > 250 nM | > 250 nM | > 250 nM |  |  |  | < 25 nM |  | 

Further lines, results first:

IC50 (CDK2/CCNE1; [1]) | IC50 (CDK4/CCND3; [2]) | IC50 (CDK1/CCNB1; [3]) | IC50 (CDK6/CCND1; [4]) | IC50 (CDK4/CCND3; [5]) | IC50 (CDK6/CCND1; [6]) | IC50 (CDK2/CCNE1; [7]) | IC50 (CDK2/CCNE1; [8]) | IC50 (CDK4/CCND3; <25 nM, read-out: CDK4/CCND IC50 <25 nM) | IC50 (CDK1/CCNB1; 25-250 nM marked x, read-out: CDK1/CCNB IC50 25-250 nM) | Structure (SMILES)
25 to 250 nM | > 250 nM | > 250 nM | > 250 nM |  |  |  |  |  |  | Cc1c(-c2nccc3cnc(Nc4ccc(S(C)(=O)=O)cc4)cc23)ccc2c1cnn2C1CCN(C)CC1 [Ex 242, 5-(4-methyl-1-(1-methylpiperidin-4-yl)-1H-indazol-5-yl)-N-(4-(methylsulfonyl)phenyl)-2,6-naphthyridin-3-amine]
25 to 250 nM | > 250 nM | > 250 nM |  |  | 25 to 250 nM |  |  |  |  | CC(C)(C)c1nccc2cnc(Nc3ccc(S(C)(=O)=O)cc3)cc12 [Ex 244, 5-(tert-butyl)-N-(4-(methylsulfonyl)phenyl)-2,6-naphthyridin-3-amine]
25 to 250 nM |  | > 250 nM |  | 25 to 250 nM | 25 to 250 nM |  |  |  |  | CC(=O)N[C@H]1CC[C@H](C#Cc2nccc3cnc(Nc4ccc(S(C)(=O)=O)cc4)cc23)CC1 [Ex 246, N-((1r,4r)-4-((7-((4-(methylsulfonyl)phenyl)amino)-2,6-naphthyridin-1-yl)ethynyl)cyclohexyl)acetamide]
 |  | > 250 nM | > 250 nM | 25 to 250 nM |  | > 250 nM |  |  |  | CN(C)C/C=C/S(=O)(=O)c1ccc(Nc2cc3c(N4CCC(C#N)CC4)nccc3cn2)cc1 [Ex 249, (E)-1-(7-((4-((3-(dimethylamino)prop-1-en-1-yl)sulfonyl)phenyl)amino)-2,6-naphthyridin-1-yl)piperidine-4-carbonitrile]
 |  | > 250 nM |  |  | 25 to 250 nM |  | < 25 nM | < 25 nM |  | CS(=O)(=O)N1CCC(Nc2cc3c(C#Cc4ccc(C#N)cc4)nccc3cn2)CC1 [Ex 251, 4-((7-((1-(methylsulfonyl)piperidin-4-yl)amino)-2,6-naphthyridin-1-yl)ethynyl)benzonitrile]
 |  | > 250 nM |  | 25 to 250 nM | 25 to 250 nM |  | < 25 nM |  |  | O=C(O)c1ccc(Nc2cc3c(C4=CCCCC4)nccc3cn2)cc1 [Ex 253, 4-((5-(cyclohex-1-en-1-yl)-2,6-naphthyridin-3-yl)amino)benzoic acid]
 |  |  |  | 25 to 250 nM | 25 to 250 nM |  | < 25 nM |  | 25 to 250 nM | Cc1c(-c2nccc3cnc(Nc4ccc(S(C)(=O)=O)cc4)cc23)ccc2c1cnn2CCO [Ex 267, 2-(4-methyl-5-(7-((4-(methylsulfonyl)phenyl)amino)-2,6-naphthyridin-1-yl)-1H-indazol-1-yl)ethan-1-ol]
25 to 250 nM | > 250 nM | > 250 nM | > 250 nM |  |  |  |  |  |  | CCC1(CC)C(=O)Nc2cc(C#Cc3nccc4cnc(Nc5ccc(S(=O)(=O)C6CC(F)(F)C6)cc5OC)cc34)ccc21 [Ex 277, 6-((7-((4-((3,3-difluorocyclobutyl)sulfonyl)-2-methoxyphenyl)amino)-2,6-naphthyridin-1-yl)ethynyl)-3,3-diethylindolin-2-one]
 | > 250 nM | > 250 nM | > 250 nM |  |  |  | < 25 nM |  |  | O=C1Nc2cc(C#Cc3nccc4cnc(Nc5ccc(S(=O)(=O)CC(F)(F)F)cc5)cc34)ccc2C12CC2 [Ex 282, 6'-((7-((4-((2,2,2-trifluoroethyl)sulfonyl)phenyl)amino)-2,6-naphthyridin-1-yl)ethynyl)spiro[cyclopropane-1,3'-indolin]-2'-one]
25 to 250 nM | > 250 nM | > 250 nM | > 250 nM |  |  |  |  |  |  | CCC1(CC)C(=O)Nc2cc(C#Cc3nccc4cnc(Nc5ccc(S(=O)(=O)C(C)C)cc5OC)cc34)ccc21 [Ex 338, 3,3-diethyl-6-((7-((4-(isopropylsulfonyl)-2-methoxyphenyl)amino)-2,6-naphthyridin-1-yl)ethynyl)indolin-2-one]
